Results: EPA's ToxValDB 9.5
Values joined by “and” are separate entries in the source; they are usually repeats but may differ in a detail not shown here. Equal values may be shown once.

Tested on: Rattus norvegicus
Settings: subchronic, duration: 90 days, oral, gavage
[1] = F, Crl:CD(SD), Blood: Activated Partial Thromboplastin Time (APTT) + Blood: Cholesterol (CHOL), Total + Blood: Fluoride (Plasma) + Blood: Hematocrit (HCT…
[2] = F, Crl:CD(SD), Blood: Activated Partial Thromboplastin Time (APTT) + Blood: Hematocrit (HCT) + Blood: Hemoglobin (HGB) + Blood: Red Blood Cell (RBC) + …
[3] = F, Crl:CD(SD), Blood: Cholesterol (CHOL), Total + Kidney: Kidney Weight, Absolute + Kidney: Kidney Weight, Relative + Kidney: Kidney Weight, Relative to …
[4] = F, Crl:CD(SD), Blood: Fluoride (Plasma), Recovery + Blood: Inorganic Phosphorous (PHOS) + Calcium (CA) + Kidney: Blood Urea Nitrogen (BUN), Blood + Kidney…
[5] = F, Crl:CD(SD), General Toxicity: Whole Body: Body Weight Change + General Toxicity: Whole Body: Clinical Observations + General Toxicity: Whole Body: …
[6] = F, Crl:CD(SD), Hematologic: Blood: Activated Partial Thromboplastin Time (APTT) + Hematologic: Blood: Hematocrit (HCT) + Hematologic: Blood: Hemoglobin (…
[7] = F, Crl:CD(SD), Kidney: Kidney Weight, Absolute + Liver: Liver Histopathology + Liver: Liver Weight, Absolute + Renal: Urinalysis, Unspecified
[8] = F, Crl:CD(SD), Other Systems: Eye: Ophthalmology + Other Systems: Nasal Cavity: Nasal Cavity/Tubinates Inflammation, Chronic, Focal/Multifocal + Other …
[9] = F, Crl:CD(SD), Pancreas: Pancreas Histopathology
[10] = F, Sprague-Dawley, Hematologic: Blood: Activated Partial Thromboplastin Time (APTT) + Hematologic: Blood: Hematocrit (HCT) + Hematologic: Blood: Hemoglobin (…
[11] = M, Crl:CD(SD), Blood: Activated Partial Thromboplastin Time (APTT) + Blood: Albumin/Globulin (A/G) Ratio + Blood: Fluoride (Plasma) + Blood: Hematocrit (…
[12] = M, Crl:CD(SD), Blood: Activated Partial Thromboplastin Time (APTT) + Blood: Hematocrit (HCT) + Blood: Hemoglobin (HGB) + Blood: Red Blood Cell (RBC) + …
[13] = M, Crl:CD(SD), Blood: Fluoride (Plasma), Recovery + Blood: Hematocrit (HCT) + Blood: Hemoglobin (HGB) + Liver: Liver, Biliary Hyperplasia + Liver: Liver, …
[14] = M, Crl:CD(SD), Blood: Inorganic Phosphorous (PHOS) + Blood: Potassium (K), Blood + Kidney: Blood Urea Nitrogen (BUN), Blood + Kidney: Kidney Weight, …
[15] = M, Crl:CD(SD), Blood: Inorganic Phosphorous (PHOS), Blood + Blood: Potassium (K), Blood + Epididymis: Epididymis Weight, Relative + Kidney: Blood Urea …
[16] = M, Crl:CD(SD), Blood: Total Protein (TP), Blood + Kidney: Kidney Histopathology + Kidney: Kidney Weight, Absolute + Liver: Total Bilirubin (TBILI), Blood…
[17] = M, Crl:CD(SD), General Toxicity: Whole Body: Body Weight Change + General Toxicity: Whole Body: Clinical Observations + General Toxicity: Whole Body: …
[18] = M, Crl:CD(SD), Hematologic: Blood: Activated Partial Thromboplastin Time (APTT) + Hematologic: Blood: Hematocrit (HCT) + Hematologic: Blood: Hemoglobin (…
[19] = M, Sprague-Dawley, Hematologic: Blood: Activated Partial Thromboplastin Time (APTT) + Hematologic: Blood: Hematocrit (HCT) + Hematologic: Blood: Hemoglobin (…

**Q.** What does the source list for `OCCC(F)(F)C(F)(F)C(F)(F)C(F)(F)C(F)(F)C(F)(F)F` [2-(Perfluorohexyl)ethanol]?
**A.** NEL (F, Crl:CD(SD), Adrenal: Adrenal Gland Weight, Absolute + Adrenal: Adrenal Gland Weight, Relative + Blood: Basophils + Blood: Calcium (CA), Blood + Blood: …): 250 mg/kg-day; LEL [1]: 125 mg/kg-day; NEL [1]: 25 mg/kg-day; LEL [2]: 125 mg/kg-day; NEL [2]: 25 mg/kg-day; LEL [3]: 25 mg/kg-day; NEL [3]: 5 mg/kg-day; LEL [4]: 250 mg/kg-day; NEL [4]: 125 mg/kg-day; NEL (F, Crl:CD(SD), Blood: Inorganic Phosphorous (PHOS) + Blood: Triglycerides (TRIG) + Calcium (CA) + Kidney: Blood Urea Nitrogen (BUN), Blood + Kidney: …): 250 mg/kg-day; LOAEL (F, Crl:CD(SD), Cardiovascular: Heart: Heart Weight, Absolute + Cardiovascular: Heart: Heart Weight, Relative + Endocrine: Adrenal: Adrenal Gland Weight, …): 25 mg/kg-day; LOAEL [5]: 125 mg/kg-day; NOAEL [5]: 25 mg/kg-day; LOAEL [6]: 25 mg/kg-day; NOAEL [6]: 5 mg/kg-day; LEL [7]: 25 mg/kg-day; NEL [7]: 5 mg/kg-day; LOAEL [8]: 250 mg/kg-day; NOAEL [8]: 125 mg/kg-day; LEL [9]: 250 mg/kg-day; NEL [9]: 125 mg/kg-day; LOAEL [10]: 25 mg/kg-day; NOAEL [10]: 5 mg/kg-day; NOAEL (F, Sprague-Dawley, Other Systems: Tooth: Tooth Discoloration + Other Systems: Tooth: Tooth Discoloration, Recovery + Other Systems: Tooth: Tooth Findings, …): 250 mg/kg-day; NEL (M, Crl:CD(SD), Adrenal: Adrenal Gland Weight, Absolute + Adrenal: Adrenal Gland Weight, Relative + Blood: Basophils + Blood: Calcium (CA), Blood + Blood: …): 250 mg/kg-day; LEL [11]: 25 mg/kg-day; NEL [11]: 5 mg/kg-day; LEL [12]: 25 mg/kg-day; NEL [12]: 5 mg/kg-day; LEL [13]: 250 mg/kg-day; NEL [13]: 125 mg/kg-day; LEL [14]: 125 mg/kg-day; NEL [14]: 25 mg/kg-day; LEL [15]: 125 mg/kg-day; NEL [15]: 25 mg/kg-day; LEL [16]: 250 mg/kg-day; NEL [16]: 125 mg/kg-day; LOAEL (M, Crl:CD(SD), Cardiovascular: Heart: Heart Weight, Absolute + Cardiovascular: Heart: Heart Weight, Relative + Endocrine: Adrenal: Adrenal Gland Weight, …): 25 mg/kg-day; LOAEL [17]: 125 mg/kg-day; NOAEL [17]: 25 mg/kg-day; LOAEL [18]: 25 mg/kg-day; NOAEL [18]: 5 mg/kg-day; LOAEL (M, Crl:CD(SD), Immune: Blood: Basophils + Immune: Blood: Eosinophils + Immune: Blood: Lymphocyte + Immune: Blood: Monocytes + Immune: Blood: Neutrophils + …): 250 mg/kg-day; LOAEL (M, Crl:CD(SD), Other Systems: Eye: Ophthalmology + Other Systems: Nasal Cavity: Nasal Cavity/Tubinates Inflammation, Chronic, Focal/Multifocal + Other …): 125 mg/kg-day and 250 mg/kg-day; LOAEL (M, Crl:CD(SD), Reproductive: Epididymis: Epididymis Weight, Absolute + Reproductive: Epididymis: Epididymis Weight, Relative + Reproductive: Testis: Testis…): 5 mg/kg-day; LOAEL [19]: 25 mg/kg-day; NOAEL [19]: 5 mg/kg-day; NOAEL (M, Sprague-Dawley, Other Systems: Blood: Potassium (K) + Other Systems: Tooth: Tooth Discoloration + Other Systems: Tooth: Tooth Discoloration, Recovery + …): 250 mg/kg-day
